One test deals with HT1080 cells. Nature of the test: Cellular assay for IDH1m inhibitors: inhibition of 2-HG production in HT1080 cells (LC-MS). The note with it: Homo sapiens, HT-1080, 48 hours. The format is cell-based. The protocol:
(§1) Cells (e.g., HT1080 or U87MG) are grown in T125 flasks in DMEM containing 10% FBS, 1× penicillin/streptomycin and 500 ug/mL G418. They are harvested by trypsin and seeded into 96 well white bottom plates at a density of 5000 cell/well in 100 ul/well in DMEM with 10% FBS. No cells are plates in columns 1 and 12. Cells are incubated overnight at 37 C in 5% CO2. The next day compounds are made up at 2× concentration and 100 ul are added to each cell well. The final concentration of DMSO is 0.2% and the DMSO control wells are plated in row G. The plates are then placed in the incubator for 48 hours. At 48 hours, 100 ul of media is removed from each well and analyzed by LC-MS for 2-HG concentrations. The cell plate is placed back in the incubator for another 24 hours. At 72 hours post compound addition, 10 mL/plate of Promega Cell Titer Glo reagent is thawed and mixed. The cell plate is removed from the incubator and allowed to equilibrate to room temperature. Then 100 ul of reagent is added to each well of media. The cell plate is then placed on an orbital shaker for 10 minutes and then allowed to sit at room temperature for 20 minutes. The plate is then read for luminescence with an integration time of 500 ms.

For the next test, the system named is U87R132H (U87MG) cells. Kind of test: Cellular assay for IDH1m inhibitors: inhibition of 2-HG production in U87MG (U87R132H) cells (LC-MS). The note with it: Homo sapiens, U-87 MG, 48 hours. Type of test: cell-based. The protocol: as §1
Another test addresses IDH1 R132H (Homo sapiens (Human), UniProt O75874, R132H). Nature of the test: Assays for IDH1 R132H Inhibitors (NADPH/aKG, resazurin detection). Type of test: biochemical. The note with it: IDH1 R132H enzyme. The method, boiled down: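 Substrate mix held 8 uM NADPH plus 2 mM aKG; buffer was 20 mM Tris pH 7.5 with 150 mM NaCl, 10 mM MgCl2, 0.03% BSA. After 50 min room-temperature reaction, NADPH remaining was detected with 30 μM resazurin mix over 5 min.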
In general terms: The colour change of resazurin is a common sign of viable cells or microbes.

Where [1] appears, read: Table 2, read-out: IDHR132H Activity.

Like-named read-outs stand apart in the source and are kept apart here.

Chain of IDH1 R132H (O75874 whole entry R132H): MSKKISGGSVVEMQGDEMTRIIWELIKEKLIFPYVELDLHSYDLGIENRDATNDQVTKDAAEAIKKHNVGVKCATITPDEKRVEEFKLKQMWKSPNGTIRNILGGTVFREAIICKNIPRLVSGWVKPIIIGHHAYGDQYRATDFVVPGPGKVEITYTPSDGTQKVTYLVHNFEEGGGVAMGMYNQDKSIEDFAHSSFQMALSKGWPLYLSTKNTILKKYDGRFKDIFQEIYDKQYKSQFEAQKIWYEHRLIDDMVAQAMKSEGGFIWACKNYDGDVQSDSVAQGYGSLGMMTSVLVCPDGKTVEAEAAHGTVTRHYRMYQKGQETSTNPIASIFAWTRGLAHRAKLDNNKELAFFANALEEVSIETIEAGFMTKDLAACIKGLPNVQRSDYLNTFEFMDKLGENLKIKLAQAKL

Turning to `CC(C)[C@@H]1CN(c2nc(C3CC3)c3c(c2C#N)CC(C)(C)OC3)CCN1C(=O)CCC(=O)OCCO` [Compound 458, (R)-2-hydroxyethyl 4-(4-(5-cyano-8-cyclopropyl-3,3-dimethyl-3,4-dihydro-1H-pyrano[3,4-c]pyridin-6-yl)-2-isopropylpiperazin-1-yl)-4-oxobutanoate], the figures for the IC50 in the test on HT1080 cells and with U87R132H (U87MG) cells were 0.5 to 1 µM and under 0.5 µM, respectively.
For `CC(=O)CCC(=O)N1CCN(c2nc(C3CC3)c3c(c2C#N)CC(C)(C)OC3)C[C@H]1C(C)C` [Compound 428, (R)-8-cyclopropyl-6-(3-isopropyl-4-(4-oxopentanoyl)piperazin-1-yl)-3,3-dimethyl-3,4-dihydro-1H-pyrano[3,4-c]pyridine-5-carbonitrile], the IC50 at IDH1 R132H (Table 3, read-out: R132H IC50) was under 0.5 µM; with HT1080 cells, 1 to 10 µM; in the test on U87R132H (U87MG) cells, under 0.5 µM.
Consider `C=CC(=O)N1CCc2c(C#N)c(N3CCN(C(=O)CC(F)(F)F)[C@H](C4CC4)C3)nc(C3CC3)c2C1` [Compound 490, (R)-7-acryloyl-1-cyclopropyl-3-(3-cyclopropyl-4-(3,3,3-trifluoropropanoyl)piperazin-1-yl)-5,6,7,8-tetrahydro-2,7-naphthyridine-4-carbonitrile], for which the IC50 at IDH1 R132H (Table 3, read-out: R132H IC50) is under 0.5 µM; in the test on HT1080 cells it was 0.5 to 1 µM.
On the same counts, the results for `C=CC(=O)N1CCc2c(C#N)c(N3CCN(C(=O)C4CC4)[C@H](C4CC4)C3)nc(C3CC3)c2C1` [Compound 489, (R)-7-acryloyl-3-(4-(cyclopropanecarbonyl)-3-cyclopropylpiperazin-1-yl)-1-cyclopropyl-5,6,7,8-tetrahydro-2,7-naphthyridine-4-carbonitrile] are under 0.5 µM and 0.5 to 1 µM.
Consider `C=C(C)C(=O)N1CCc2c(C#N)c(N3CCN(C(=O)CCOC)[C@H](C4CC4)C3)nc(C3CC3)c2C1` [Compound 502, (R)-1-cyclopropyl-3-(3-cyclopropyl-4-(3-methoxypropanoyl)piperazin-1-yl)-7-methacryloyl-5,6,7,8-tetrahydro-2,7-naphthyridine-4-carbonitrile], for which the IC50 was 0.5 to 1 µM at IDH1 R132H (Table 3, read-out: R132H IC50) and 0.5 to 1 µM in the test on HT1080 cells.
As to `C#CC(=O)N1CCc2c(C#N)c(N3CCN(C(=O)CCO)[C@H](C4CC4)C3)nc(C3CC3)c2C1` [Compound 500, (R)-1-cyclopropyl-3-(3-cyclopropyl-4-(3-hydroxypropanoyl)piperazin-1-yl)-7-propioloyl-5,6,7,8-tetrahydro-2,7-naphthyridine-4-carbonitrile], the IC50 lay within 0.5 to 1 µM on IDH1 R132H (Table 3, read-out: R132H IC50) and 0.5 to 1 µM in the test on HT1080 cells.
Consider `C#CC(=O)N1CCc2c(C#N)c(N3CCN(C(=O)C4CC4)[C@H](C4CC4)C3)nc(C3CC3)c2C1` [Compound 491, (R)-3-(4-(cyclopropanecarbonyl)-3-cyclopropylpiperazin-1-yl)-1-cyclopropyl-7-propioloyl-5,6,7,8-tetrahydro-2,7-naphthyridine-4-carbonitrile], for which the IC50 was under 0.5 µM at IDH1 R132H (Table 3, read-out: R132H IC50) and under 0.5 µM in the test with HT1080 cells.
Take `C#CC(=O)N1CCc2c(C#N)c(-c3ccc(C(=O)OC)cc3F)nc(C3CC3)c2C1` [Compound 495]: the IC50 was 0.5 to 1 µM at IDH1 R132H (Table 3, read-out: R132H IC50) and under 0.5 µM in the test on HT1080 cells.
On the same counts, the results for `N#CCC(=O)N1CCc2c(C#N)c(N3CCN(C(=O)C4CC4)[C@H](C4CC4)C3)nc(C3CC3)c2C1` [Compound 497, (R)-7-(2-cyanoacetyl)-3-(4-(cyclopropanecarbonyl)-3-cyclopropylpiperazin-1-yl)-1-cyclopropyl-5,6,7,8-tetrahydro-2,7-naphthyridine-4-carbonitrile] are 0.5 to 1 µM and 1 to 10 µM.
For the molecule `C#CC(=O)N1CCc2c(C#N)c(N3CCN(C(=O)CCOC)[C@H](C4CC4)C3)nc(C3CC3)c2C1` [Compound 488, (R)-1-cyclopropyl-3-(3-cyclopropyl-4-(3-methoxypropanoyl)piperazin-1-yl)-′7-propioloyl-5,6,7,8-tetrahydro-2,7-naphthyridine-4-carbonitrile], the IC50 in the test with HT1080 cells and with U87R132H (U87MG) cells was under 0.5 µM in each case.
As to `C=C(F)C(=O)N1CCc2c(C3CC3)nc(N3CCN(C(=O)CCOC)[C@H](C4CC4)C3)c(C#N)c2C1` [Compound 492], the IC50 at IDH1 R132H (Table 3, read-out: R132H IC50) was 0.5 to 1 µM; in the test on HT1080 cells, 1 to 10 µM.
With `COCCC(=O)N1CCN(c2nc(C3CC3)c3c(c2C#N)CN(S(C)(=O)=O)CC3)C[C@H]1C1CC1` [Compound 487, (R)-1-cyclopropyl-3-(3-cyclopropyl-4-(3-methoxypropanoyl)piperazin-1-yl)-6-(methylsulfonyl)-5,6,7,8-tetrahydro-2,6-naphthyridine-4-carbonitrile], the IC50 in the test with HT1080 cells and in the test with U87R132H (U87MG) cells was 1 to 10 µM in each case.
For `C[C@@H]1CN(c2nc(C3CCCCC3)c3c(c2C#N)CCOC3)CCN1C(=O)c1csc2ccccc12` [Compound 243, (R)-6-(4-(benzo[b]thiophene-3-carbonyl)-3-methylpiperazin-1-yl)-8-cyclohexyl-3,4-dihydro-1H-pyrano[3,4-c]pyridine-5-carbonitrile], the IC50 at IDH1 R132H (setting [1]) lay within 1 to 10 µM.
Regarding `COCCC(=O)N1CCN(c2nc(C3CC3)c3c(c2C#N)CCN(C(C)=O)C3)C[C@H]1C1CC1` [Compound 478, (R)-7-acetyl-1-cyclopropyl-3-(3-cyclopropyl-4-(3-methoxypropanoyl)piperazin-1-yl)-5,6,7,8-tetrahydro-2,7-naphthyridine-4-carbonitrile], the IC50 at IDH1 R132H (Table 3, read-out: R132H IC50) was under 0.5 µM.
For `CC(C)[C@@H]1CN(c2nc(C3CCCCC3)c3c(c2C#N)CCOC3)CCN1C(=O)c1ccoc1` [Compound 183, (R)-8-cyclohexyl-6-(4-(furan-3-carbonyl)-3-isopropylpiperazin-1-yl)-3,4-dihydro-1H-pyrano[3,4-c]pyridine-5-carbonitrile], the IC50 at IDH1 R132H (setting [1]) fell in the range of 1 to 10 µM.
With `C=CC(=O)N1CCc2c(C3CC3)nc(N3CCN(C(=O)C4CC4)[C@H](C4CC4)C3)c(C#N)c2C1` [Compound 482, (R)-6-acryloyl-3-(4-(cyclopropanecarbonyl)-3-cyclopropylpiperazin-1-yl)-1-cyclopropyl-5,6,7,8-tetrahydro-2,6-naphthyridine-4-carbonitrile], the IC50 in the test with HT1080 cells and in the test on U87R132H (U87MG) cells was under 0.5 µM each time.
On to `CCC1CN(c2nc(C3CCCCC3)c3c(c2C#N)CCOC3)CCN1C(=O)c1ccco1` (centres unmarked) [Compound 174, 8-cyclohexyl-6-(3-ethyl-4-(furan-2-carbonyl)piperazin-1-yl)-3,4-dihydro-1H-pyrano[3,4-c]pyridine-5-carbonitrile], for which the IC50 on IDH1 R132H (setting [1]) was in the range of 1 to 10 µM.
The same measure, in the same setting: next, `C[C@@H]1CN(c2nc(C3CC3)c3c(c2C#N)CC(C)(C)OC3)[C@@H](C)CN1C(=O)c1ccoc1` [Compound 308, 8-cyclopropyl-6-((2S,5R)-4-(furan-3-carbonyl)-2,5-dimethylpiperazin-1-yl)-3,3-dimethyl-3,4-dihydro-1H-pyrano[3,4-c]pyridine-5-carbonitrile]: 1 to 10 µM.
Still for that read-out and setting: next, `CCS(=O)(=O)N1CCN(c2nc(C3CC3)c3c(c2C#N)CC(C)(C)OC3)C[C@H]1C(C)C` [Compound 391, (R)-8-cyclopropyl-6-(4-(ethylsulfonyl)-3-isopropylpiperazin-1-yl)-3,3-dimethyl-3,4-dihydro-1H-pyrano[3,4-c]pyridine-5-carbonitrile]: 1 to 10 µM.
Consider `CCOC(=O)C1CN(c2nc(C(C)C)c3c(c2C#N)CC(C)(C)OC3)CCN1C(=O)OCCOC` (centres unmarked) [Compound 329, 2-ethyl 1-(2-methoxyethyl) 4-(5-cyano-8-isopropyl-3,3-dimethyl-3,4-dihydro-1H-pyrano[3,4-c]pyridin-6-yl)piperazine-1,2-dicarboxylate], for which the IC50 at IDH1 R132H (setting [1]) was in the range of 1 to 10 µM.
Same read-out and setting: the result for `CC(C)c1nc(N2CCN(C(=O)Cc3cccc(Cl)c3)[C@H](C)C2)c(C#N)c2c1COC(C)(C)C2` [Compound 161, (R)-6-(4-(2-(3-chlorophenyl)acetyl)-3-methylpiperazin-1-yl)-8-isopropyl-3,3-dimethyl-3,4-dihydro-1H-pyrano[3,4-c]pyridine-5-carbonitrile] reads 1 to 10 µM; that for `COCC(=O)N1CCN(c2nc(C3CCCCC3)c3c(c2C#N)CCOC3)C[C@H]1C` [Compound 341], 1 to 10 µM.
`CC(C)[C@@H]1CN(c2nc(C3CC3)c3c(c2C#N)CC(C)(C)OC3)CCN1C(=O)C[S+](C)[O-]` (stereo partly drawn) [Compound 453, 8-Cyclopropyl-6-((3R)-3-isopropyl-4-(2-(methylsulfinyl)acetyl)piperazin-1-yl)-3,3-dimethyl-3,4-dihydro-1H-pyrano[3,4-c]pyridine-5-carbonitrile]: the IC50 at IDH1 R132H (Table 3, read-out: R132H IC50) was in the range of 0.5 to 1 µM.
In the case of `CC(C)[C@@H]1CN(c2nc(C3CC3)c3c(c2C#N)CC(C)(C)OC3)CCN1C(=O)Nc1ccc(C#N)cc1` [Compound 303, (R)-4-(5-cyano-8-cyclopropyl-3,3-dimethyl-3,4-dihydro-1H-pyrano[3,4-c]pyridin-6-yl)-N-(4-cyanophenyl)-2-isopropylpiperazine-1-carboxamide], at IDH1 R132H (setting [1]), the IC50 was 1 to 10 µM.
